From patent publication US8835644B2, “Broad spectrum benzothiophene-nitrothiazolide and other antimicrobials” (University of Virginia Patent Foundation, priority 2009, dated 2014)
Values after ≈ are worked out from the molar mass of the structure shown. Where a name gives a salt, the structure may show the parent alone. Read-outs that look alike come from different tables or passages of the source.

What was measured:
C. difficile = assay: Disk diffusion (Kirby Bower), C. difficile; format: cell-based, Clostridium difficile; conditions: zone of inhibited growth as relative ratio to the zone for NTZ
Experimental: (§1) A standard broth dilution protocol was used in 96 well microplates containing a standard dilution of the microorganism to be tested in 100 microliters of the appropriate medium. Appropriate medium: E. coli, LB medium; Staphylococcus strains, Trypticase Soy; and for H. pylori and C. jejuni, Brain Heart Infusion. The compounds to be tested were set at 32 μg/ml in 200 microliters in well one and then serially diluted to provide a range from 32 to 0.06. The wells were scored visually at 24 h. The well where there was no growth was recorded as the MIC. Clostridium difficile was tested by agar diffusion and disk diffusion (Kirby Bower) methods under anaerobic conditions on Wilkins Chalgrin agar. In these assays, zone of inhibited growth was measured and compared by relative ratio to the zone recorded for NTZ.
(§2) Representative compounds of the invention were tested in a series of assays against a series of organisms as described above. […] The organisms tested include, C. difficile, H. pylori, C. jejuni, MRSA, S. epidermidis, and E. coli. S. epidermidis and E. coli were tested in the plank and biofilm assay. A disk diffusion assay was also used for C. difficile. Direct PFOR enzyme assays were also performed. All analogues and derivatives were not tested on every organism in every type of assay (the “-” in each table means that it was not tested).

C. jejuni = assay: MIC testing by broth dilution, C. jejuni; format: cell-based, Campylobacter jejuni; conditions: 24 h, read-out: MIC (μM) C. jejuni
Experimental: as §1, §2

S. epidermidis = assay: MIC testing by broth dilution, S. epidermidis plank; format: cell-based, Staphylococcus epidermidis; conditions: 24 h, read-out: MIC (μM) S. epidermidis Plank
Experimental: as §1, §2

MRSA = assay: MIC testing by broth dilution, MRSA; format: cell-based, Staphylococcus aureus; conditions: 24 h, read-out: MIC (μM) MRSA
Experimental: as §1, §2

H. pylori = assay: MIC testing by broth dilution, H. pylori; format: cell-based, Helicobacter pylori; conditions: 24 h, read-out: MIC (μM) H. pylori
Experimental: as §1, §2

E. coli = assay: MIC testing by broth dilution, E. coli plank; format: cell-based, Escherichia coli; conditions: 24 h, read-out: MIC (μM) E. coli Plank
Experimental: as §1, §2

[1] = broth dilution, Brain Heart Infusion

Compound	Disk Diffusion (%) C. difficile (C. difficile) [%]	MIC (C. jejuni; [1]) [µM]	MIC (S. epidermidis; broth dilution, Trypticase Soy) [µM]	MIC (MRSA; broth dilution, Trypticase Soy) [µM]	MIC (H. pylori; [1]) [µM]	MIC (E. coli; broth dilution, LB medium) [µM]	MIC (C. jejuni; Campylobacter jejuni) [µM]	MIC (S. epidermidis; Staphylococcus epidermidis) [µM]	MIC (MRSA; Staphylococcus aureus, MRSA) [µM]	MIC (H. pylori; Helicobacter pylori) [µM]	MIC (E. coli; Escherichia coli) [µM]
CC(=O)NCCOc1ccccc1C(=O)Nc1ncc([N+](=O)[O-])s1 [VPC162044]	77	34.3 (≈ 12 µg/mL)	22.8 (≈ 7.99 µg/mL)	91.3 (≈ 32 µg/mL)	1.1 (≈ 0.385 µg/mL)	91.3 (≈ 32 µg/mL)	–	–	–	–	–
CS(=O)(=O)NCCOc1ccccc1C(=O)Nc1ncc([N+](=O)[O-])s1 [VPC162045]	51	51.8 (≈ 20 µg/mL)	62.1 (≈ 24 µg/mL)	82.8 (≈ 32 µg/mL)	0.6 (≈ 0.232 µg/mL)	82.8 (≈ 32 µg/mL)	–	–	–	–	–
CC(=O)Nc1ccccc1C(=O)Nc1ncc([N+](=O)[O-])s1 [VPC162046b]	–	41.6 (≈ 12.7 µg/mL)	111.0 (≈ 34 µg/mL)	55.5 (≈ 17 µg/mL)	6.9 (≈ 2.11 µg/mL)	111.0 (≈ 34 µg/mL)	–	–	–	–	–
CC(C)(C)OC(=O)Nc1ccccc1C(=O)Nc1ncc([N+](=O)[O-])s1 [VPC162047, tert-Butyl 2-(5-nitrothiazol-2-ylcarbamoyl)phenylcarbamate]	83	–	–	–	–	–	27.4 (≈ 9.98 µg/mL)	5.5 (≈ 2 µg/mL)	5.5 (≈ 2 µg/mL)	0.3 (≈ 0.109 µg/mL)	87.8 (≈ 32 µg/mL)
O=C(NCCOc1ccccc1C(=O)Nc1ncc([N+](=O)[O-])s1)Nc1ccccc1 [VPC162048]	31	74.9 (≈ 32 µg/mL)	74.9 (≈ 32 µg/mL)	74.9 (≈ 32 µg/mL)	0.4 (≈ 0.171 µg/mL)	74.9 (≈ 32 µg/mL)	–	–	–	–	–
CN(C)CCOc1ccccc1C(=O)Nc1ncc([N+](=O)[O-])s1 [VPC162052]	–	17.8 (≈ 5.99 µg/mL)	95.1 (≈ 32 µg/mL)	95.1 (≈ 32 µg/mL)	1.5 (≈ 0.505 µg/mL)	95.1 (≈ 32 µg/mL)	–	–	–	–	–
Nc1ccccc1C(=O)Nc1ncc([N+](=O)[O-])s1 [VPC162055]	83	11.4 (≈ 3.01 µg/mL)	90.8 (≈ 24 µg/mL)	121.1 (≈ 32 µg/mL)	2.4 (≈ 0.634 µg/mL)	45.4 (≈ 12 µg/mL)	–	–	–	–	–
O=C(COc1ccccc1C(=O)Nc1ncc([N+](=O)[O-])s1)Nc1ccccc1 [VPC162056]	–	80.3 (≈ 32 µg/mL)	80.3 (≈ 32 µg/mL)	80.3 (≈ 32 µg/mL)	0.9 (≈ 0.359 µg/mL)	80.3 (≈ 32 µg/mL)	–	–	–	–	–
CCCCCCNC(=O)COc1ccccc1C(=O)Nc1ncc([N+](=O)[O-])s1 [VPC162064]	–	78.7 (≈ 32 µg/mL)	4.9 (≈ 1.99 µg/mL)	78.7 (≈ 32 µg/mL)	1.9 (≈ 0.772 µg/mL)	78.7 (≈ 32 µg/mL)	–	–	–	–	–
O=C(COc1ccccc1C(=O)Nc1ncc([N+](=O)[O-])s1)NCCN1CCOCC1 [VPC162065]	–	36.7 (≈ 16 µg/mL)	27.6 (≈ 12 µg/mL)	73.5 (≈ 32 µg/mL)	2.3 (≈ 1 µg/mL)	73.5 (≈ 32 µg/mL)	–	–	–	–	–
Cl.O=C(Nc1ncc([N+](=O)[O-])s1)c1ccccc1OCCNC(=O)C1CCNCC1 [VPC162068]	–	35.1	70.2	70.2	52.6	70.2	–	–	–	–	–
NCCOC(=O)COc1ccccc1C(=O)Nc1ncc([N+](=O)[O-])s1 [VPC162082, 2-Aminoethyl 2-(2-(5-nitrothiazol-2-ylcarbamoyl)phenoxy)acetate hydrochloride]	–	–	–	–	–	–	29.8	79.4	79.4	6.2	79.4
Cl.O=C(COc1ccccc1C(=O)Nc1ncc([N+](=O)[O-])s1)OC1CNC1 [VPC162083]	–	77.1	77.1	77.1	24.1	77.1	–	–	–	–	–
